Laboratory results from paper PMC6556873, “Rapid Covalent-Probe Discovery by Electrophile-Fragment Screening” (Journal of the American Chemical Society, 2019).
Like-named read-outs stand apart in the source and are kept apart here.

Legend:
NUDT7 [1] = target: T1, NUDT7 (Homo sapiens, UniProt P0C024); assay: RapidFire MS acetyl-CoA hydrolysis, kobs vs [inhibitor]; type: biochemical
T1 construct: residues 14-235, E. coli, pNIC28-Bsa4, N-terminal His6 tag removed by TEV, construct 26672 Da

NUDT7 [2] = target: T1, NUDT7; assay: RapidFire MS acetyl-CoA hydrolysis assay; type: biochemical
NUDT7 [3] = target: T1, NUDT7; assay: RapidFire MS acetyl-CoA hydrolysis, kobs vs [inhibitor]; type: biochemical; conditions: covalent, inactivation constant KI from kinact/KI fit, 5 mM MgCl2, pH 7.5
NUDT7 [4] = target: T1, NUDT7; assay: X-ray cocrystal structure; type: binding; conditions: covalent; C73
BSA = target: T2, BSA (Bos taurus, UniProt P02769); design: Intact protein LC/MS covalent labelling, fragments in pools of five, 200 uM each, 4 °C; conditions: 24 h, 4 °C, pool of five; 200 µM; covalent
T2 construct: gene ALB
T2 sequence (P02769 whole entry, the tested form may be a part): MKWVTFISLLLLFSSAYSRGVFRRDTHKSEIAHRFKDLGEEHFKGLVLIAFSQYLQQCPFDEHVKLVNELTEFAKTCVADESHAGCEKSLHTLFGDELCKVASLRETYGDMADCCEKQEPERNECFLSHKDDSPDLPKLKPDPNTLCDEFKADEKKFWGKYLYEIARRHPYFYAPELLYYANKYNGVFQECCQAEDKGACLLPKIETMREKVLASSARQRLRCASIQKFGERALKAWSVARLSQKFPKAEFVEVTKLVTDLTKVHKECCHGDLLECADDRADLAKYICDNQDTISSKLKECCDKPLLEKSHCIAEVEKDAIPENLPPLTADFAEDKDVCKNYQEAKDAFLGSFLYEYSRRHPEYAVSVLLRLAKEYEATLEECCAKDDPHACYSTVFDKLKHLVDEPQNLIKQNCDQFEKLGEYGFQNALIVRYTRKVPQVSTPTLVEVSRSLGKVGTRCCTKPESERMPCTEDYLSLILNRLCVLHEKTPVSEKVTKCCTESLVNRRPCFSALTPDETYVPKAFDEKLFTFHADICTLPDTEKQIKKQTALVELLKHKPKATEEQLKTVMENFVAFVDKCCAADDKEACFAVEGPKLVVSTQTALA

NUDT7 [5] = target: T1, NUDT7; design: Intact protein LC/MS covalent labelling, fragments in pools of five, 200 uM each, 4 °C; conditions: 24 h, 4 °C, pool of five; 200 µM; covalent
OTUB2 (OTUB2A) [6] = target: T3, OTUB2 (OTUB2A) (Homo sapiens, UniProt Q96DC9); design: Intact protein LC/MS covalent labelling, fragments in pools of five, 200 uM each, 4 °C; conditions: 24 h, 4 °C, pool of five; 200 µM; covalent
T3 construct: full length residues 1-234, E. coli BL21(DE3)-R3, His tag removed by TEV, construct 27312 Da
T3 sequence (Q96DC9 1-234): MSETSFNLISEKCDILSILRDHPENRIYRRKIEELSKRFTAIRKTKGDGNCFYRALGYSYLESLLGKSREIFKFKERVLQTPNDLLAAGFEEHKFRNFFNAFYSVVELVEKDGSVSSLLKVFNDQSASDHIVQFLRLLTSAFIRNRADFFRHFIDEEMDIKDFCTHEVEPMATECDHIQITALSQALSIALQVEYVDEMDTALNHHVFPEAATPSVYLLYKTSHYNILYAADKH

PCAF = target: T4, PCAF (Homo sapiens, UniProt Q92831); design: Intact protein LC/MS covalent labelling, fragments in pools of five, 200 uM each, 4 °C; conditions: 24 h, 4 °C, pool of five; 200 µM; covalent
T4 construct: gene KAT2B
T4 sequence (Q92831 whole entry, the tested form may be a part): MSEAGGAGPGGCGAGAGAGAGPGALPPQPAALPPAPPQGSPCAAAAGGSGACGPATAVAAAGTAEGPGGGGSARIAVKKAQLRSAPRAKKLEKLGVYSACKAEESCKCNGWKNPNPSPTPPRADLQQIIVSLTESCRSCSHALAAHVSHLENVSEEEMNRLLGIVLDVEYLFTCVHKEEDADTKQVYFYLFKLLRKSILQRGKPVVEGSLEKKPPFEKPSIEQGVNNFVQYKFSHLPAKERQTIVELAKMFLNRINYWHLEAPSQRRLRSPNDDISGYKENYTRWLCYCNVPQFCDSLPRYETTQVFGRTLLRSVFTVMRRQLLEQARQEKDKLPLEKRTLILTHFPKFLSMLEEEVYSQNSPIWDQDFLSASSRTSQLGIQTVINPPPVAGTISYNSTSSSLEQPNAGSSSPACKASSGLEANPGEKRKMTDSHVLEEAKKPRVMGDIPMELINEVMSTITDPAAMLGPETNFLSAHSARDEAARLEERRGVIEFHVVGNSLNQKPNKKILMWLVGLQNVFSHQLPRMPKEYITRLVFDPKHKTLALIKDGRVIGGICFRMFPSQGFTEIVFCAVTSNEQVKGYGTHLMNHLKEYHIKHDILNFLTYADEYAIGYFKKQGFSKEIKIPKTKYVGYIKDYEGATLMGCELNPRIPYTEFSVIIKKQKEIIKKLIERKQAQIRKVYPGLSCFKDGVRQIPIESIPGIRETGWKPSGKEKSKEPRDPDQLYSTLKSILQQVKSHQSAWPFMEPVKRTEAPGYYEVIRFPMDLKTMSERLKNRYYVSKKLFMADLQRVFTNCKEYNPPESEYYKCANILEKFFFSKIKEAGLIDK

in vitro [7] = assay: in vitro; design: species or system CCD841, HEK293; conditions: human, hb2 cells, read-out: HB-2 Cells Viability (%)
in vitro [8] = assay: in vitro; design: species or system HB2, HEK293; conditions: human, ccd841 cells
in vitro [9] = assay: in vitro; design: species or system HB2, CCD841; conditions: human, hek293 cells
NUDT7 [10] = target: T1, NUDT7; assay: X-ray crystal structure, soak; conditions: noncovalent; putative substrate binding region
OTUB2 (OTUB2A) [11] = target: T3, OTUB2 (OTUB2A); assay: intact protein LC/MS labeling; type: binding; conditions: covalent; 24 h, 4 °C
OTUB2 (OTUB2A) [12] = target: T3, OTUB2 (OTUB2A); assay: intact protein LC/MS labeling; type: binding; conditions: covalent; 24 h, 4 °C; remark: listed apart in the source
USP8 = target: T5, USP8 (Homo sapiens, UniProt P40818); assay: intact protein LC/MS labeling; type: binding; conditions: covalent; promiscuous compound; 24 h, 4 °C, 2 μM protein, pools of five, pH 7.5
T5 construct: residues 705-1081, E. coli, produced as NUDT7 (His tag removed by TEV), construct 44429 Da
T5 sequence (P40818 705-1081): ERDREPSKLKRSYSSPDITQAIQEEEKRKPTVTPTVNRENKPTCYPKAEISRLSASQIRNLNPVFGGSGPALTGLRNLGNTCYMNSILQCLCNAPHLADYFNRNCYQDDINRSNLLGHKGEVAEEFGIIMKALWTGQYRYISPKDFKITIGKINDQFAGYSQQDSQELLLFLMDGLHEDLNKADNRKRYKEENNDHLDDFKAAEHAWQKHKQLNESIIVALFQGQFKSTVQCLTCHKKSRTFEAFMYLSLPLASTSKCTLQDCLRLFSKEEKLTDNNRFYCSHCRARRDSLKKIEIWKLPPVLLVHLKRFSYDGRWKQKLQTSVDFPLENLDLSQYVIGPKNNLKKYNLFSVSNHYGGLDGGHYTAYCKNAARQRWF

NNMT (hNNMT) [13] = target: T6, NNMT (hNNMT) (Homo sapiens, UniProt P40261); assay: intact protein LC/MS labeling; type: binding; conditions: covalent; promiscuous compound; 24 h, 4 °C, 2 μM protein, pools of five, pH 7.5
T6 construct: wild type, N-terminal His6 tag kept (no cleavage described), E. coli, construct 31248 Da
T6 sequence (P40261 1-264): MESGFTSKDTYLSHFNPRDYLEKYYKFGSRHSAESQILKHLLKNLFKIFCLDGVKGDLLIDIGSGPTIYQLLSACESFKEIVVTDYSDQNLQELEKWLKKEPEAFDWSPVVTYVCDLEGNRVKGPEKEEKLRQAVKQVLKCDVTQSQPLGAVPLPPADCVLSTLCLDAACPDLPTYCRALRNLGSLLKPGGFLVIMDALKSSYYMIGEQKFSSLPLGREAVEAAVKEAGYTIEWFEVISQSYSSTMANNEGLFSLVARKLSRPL

NNMT (hNNMT) [14] = target: T6, NNMT (hNNMT); design: Intact protein LC/MS covalent labelling, fragments in pools of five, 200 uM each, 4 °C; conditions: 24 h, 4 °C, pool of five; 200 µM; covalent
K-Ras^G12C = target: T7, K-Ras^G12C (Homo sapiens, UniProt P01116, G12C, species not given); assay: intact protein LC/MS labeling; type: binding; conditions: covalent; 24 h, 4 °C, 2 μM protein, pools of five, pH 8.0
T7 construct: gene KRAS; residues 1-169, recombinant, construct 19245 Da
T7 sequence (P01116 1-169 G12C): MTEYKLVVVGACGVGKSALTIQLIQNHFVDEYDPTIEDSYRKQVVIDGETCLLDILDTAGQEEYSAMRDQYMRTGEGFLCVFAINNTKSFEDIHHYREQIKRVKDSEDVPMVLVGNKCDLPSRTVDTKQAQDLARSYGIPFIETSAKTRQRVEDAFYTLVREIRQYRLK

T1 sequence (P0C024 14-235): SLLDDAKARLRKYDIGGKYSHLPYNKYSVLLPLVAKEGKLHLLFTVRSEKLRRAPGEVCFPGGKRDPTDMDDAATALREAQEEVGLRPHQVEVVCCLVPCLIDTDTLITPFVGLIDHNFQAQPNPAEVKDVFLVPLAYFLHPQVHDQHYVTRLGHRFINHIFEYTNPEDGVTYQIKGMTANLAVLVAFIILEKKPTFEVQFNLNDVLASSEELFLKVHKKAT

BSA (BSA)	NUDT7 (NUDT7 [5])	OTUB2 (OTUB2 (OTUB2A) [6])	PCAF (PCAF)	SMILES	viability at 48 h, 10 µM (in vitro [7]) [%]	viability at 48 h, 10 µM (in vitro [8]) [%]	viability at 48 h, 10 µM (in vitro [9]) [%]	other results
0	0.68	0.09	0	COc1cccc(C2CCCN2C(=O)CCl)c1 (racemic) [PCM-0102716]	7.6	34.4	3.6	X-ray cocrystal structure (NUDT7 [4]): cocrystal structures of compounds PCM-0102951, PCM-0102558, and PCM-0102716 bound to NUDT7
0	0.53	0	0	O=C(CCl)Nc1nc(-c2cc(F)ccc2F)cs1 [PCM-0102496]	3.9	35.7	2.2	% labeling at 200 μM (USP8): > 50%; % labeling at 200 μM (NNMT (hNNMT) [13]): > 50%; NNMT (NNMT (hNNMT) [14]): 1
0	1	0	0	COc1ccc(C2CCCCCN2C(=O)CCl)cc1 (stereo not shown) [PCM-0102558]	27.4	11	15.3	kinact/KI (NUDT7 [1]): 233 M⁻¹ s⁻¹
0	0	0.17	0	Cl.O=C(CCl)N1CCN(Cc2ccc(Cl)cc2)CC1 [PCM-0102818]	8.2	31.6	7.8	% labeling at 200 μM (K-Ras^G12C): 63%; NNMT (NNMT (hNNMT) [14]): 0.14
0	1	0	0	O=C(CCl)NC1(c2ccc3c(c2)OCCO3)CCCC1 [PCM-0102951]	72.7	69.3	56.4	X-ray cocrystal structure (NUDT7 [4]): cocrystal structures of compounds PCM-0102951, PCM-0102558, and PCM-0102716 bound to NUDT7

Continued, compound first:

SMILES	BSA (BSA)	NUDT7 (NUDT7 [5])	OTUB2 (OTUB2 (OTUB2A) [6])	PCAF (PCAF)	viability at 48 h, 10 µM (in vitro [7]) [%]	viability at 48 h, 10 µM (in vitro [8]) [%]	viability at 48 h, 10 µM (in vitro [9]) [%]	other results
O=C(Cc1cccc(C2CCCN2C(=O)CCl)c1)Nc1cccc(Cl)c1 (racemic) [NUDT7-COV-1]								kinact/KI (NUDT7 [1]): 757 M⁻¹ s⁻¹; IC50 (NUDT7 [2]): 1.1 µM; KI (inactivation) (NUDT7 [3]): 13.2 µM
O=C(Cc1cccc(O)c1)Nc1cccc(Cl)c1 [NUDT7-REV-1]								X-ray crystal structure, soak (NUDT7 [10]): soaked them into NUDT7 crystals, which yielded a structure in complex with compound NUDT7-REV-1
O=C(CCl)NNC(=O)C(c1ccccc1)c1ccccc1 [OTUB2-COV-17]								% labeling at 100 μM (OTUB2 (OTUB2A) [11]): 100%
O=C(CCl)NNC(=O)C1CC1c1ccc(Cl)cc1 (stereo not shown) [OTUB2-COV-22]								% labeling at 5 μM (OTUB2 (OTUB2A) [12]): 55%
